Laboratory results as given in BindingDB's records for doi:10.1016/j.bmcl.2008.03.027 (Scripps Florida, 2008).

molecular target: Steroidogenic factor 1 (Homo sapiens, UniProt Q13285); assay: Transactivation Cell-Based Assay
Procedure: The assay was to monitor the SF-1 activation state via co-transfection of CHO-K1 cells with a plasmid encoding a Gal4-SF-1 chimerical transcription factor, pGal4DBD-SF-1-LBD, and a second plasmid driving luciferase expression under control of 5 multimerized Gal4 binding sites. The assay began by dispensing transfected cell suspension to each well (4,000 cells / well) of a white solid-bottom 1536-well plate. One hour after seeding, cells were treated with test compounds or DMSO alone (high control). The -NR cells (not co-transfected with nuclear receptor) were treated with DMSO (low control). After incubation, the luciferase assay was performed, and light emission was measured for 30 seconds with the ViewLux reader (PerkinElmer, Turku, Finland). Activity of each compound was calculated using the equation: Percent inhibition of compound=100 x (1-(test well-low control)/ (high control-low control)) EC50/IC50 is the concentration of test compound to exert 50% inhibition.

Steroidogenic factor 1, sequence (Q13285 whole entry, the tested form may be a part): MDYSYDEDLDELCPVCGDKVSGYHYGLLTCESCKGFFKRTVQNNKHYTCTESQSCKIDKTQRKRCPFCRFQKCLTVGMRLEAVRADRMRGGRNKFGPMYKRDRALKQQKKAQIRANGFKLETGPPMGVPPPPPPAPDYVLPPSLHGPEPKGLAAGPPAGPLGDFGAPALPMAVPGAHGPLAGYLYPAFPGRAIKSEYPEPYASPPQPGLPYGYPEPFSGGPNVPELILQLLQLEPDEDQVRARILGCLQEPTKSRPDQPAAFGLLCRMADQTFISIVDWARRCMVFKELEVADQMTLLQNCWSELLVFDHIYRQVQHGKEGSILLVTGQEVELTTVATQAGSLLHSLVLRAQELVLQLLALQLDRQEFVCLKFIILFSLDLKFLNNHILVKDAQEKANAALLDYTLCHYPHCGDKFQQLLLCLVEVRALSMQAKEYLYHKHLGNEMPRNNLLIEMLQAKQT

First: CCOC(=O)C(C)Oc1cccc2c(=O)n(CC(=O)Nc3ccc4c(c3)OCCO4)ccc12 (stereo unspecified)
Second: CCOC(=O)C(C)Oc1cccc2c(=O)n(CCC(=O)Nc3ccc4c(c3)OCCO4)ccc12 (stereo unspecified) [ethyl 2-({2-[2-(2,3-dihydro-1,4-benzodioxin-6-ylcarbamoyl)ethyl]-1-oxo-1,2-dihydroisoquinolin-5-yl}oxy)propanoate]
The EC50 of the first is 11-fold lower: 760 nM for the first, 8460 nM for the second.

Compared with `CCCCOc1cccc2c(=O)n(CC(=O)Nc3ccc4c(c3)OCCO4)ccc12` [2-(5-butoxy-1-oxo-1,2-dihydroisoquinolin-2-yl)-N-(2,3-dihydro-1,4-benzodioxin-6-yl)acetamide], `CCCCC(C)Oc1cccc2c(=O)n(CC(=O)Nc3ccc4c(c3)OCCO4)ccc12` (stereo unspecified) [N-(2,3-dihydro-1,4-benzodioxin-6-yl)-2-[5-(hexan-2-yloxy)-1-oxo-1,2-dihydroisoquinolin-2-yl]acetamide] is 16-fold lower in EC50: 13700 nM for the first, 880 nM for the second. The second is the more potent here.

Compared with `CCC(C)Oc1cccc2c(=O)n(CC(=O)Nc3ccc4c(c3)OCCO4)ccc12` (stereo unspecified) [2-[5-(butan-2-yloxy)-1-oxo-1,2-dihydroisoquinolin-2-yl]-N-(2,3-dihydro-1,4-benzodioxin-6-yl)acetamide], `CCOC(=O)C(C)(C)Oc1cccc2c(=O)n(CC(=O)Nc3ccc4c(c3)OCCO4)ccc12` [ethyl 2-({2-[(2,3-dihydro-1,4-benzodioxin-6-ylcarbamoyl)methyl]-1-oxo-1,2-dihydroisoquinolin-5-yl}oxy)-2-methylpropanoate] is 13-fold lower in EC50: 7860 nM for the first, 590 nM for the second.

Going from `CCOC(=O)C(C)Oc1cccc2c(=O)n(CC(=O)NCc3ccccc3)ccc12` (stereo unspecified) [ethyl 2-({2-[(benzylcarbamoyl)methyl]-1-oxo-1,2-dihydroisoquinolin-5-yl}oxy)propanoate] to `CCOC(=O)C(C)Oc1cccc2c(=O)n(CC(=O)NCCc3ccccc3)ccc12` (stereo unspecified) [ethyl 2-[(1-oxo-2-{[(2-phenylethyl)carbamoyl]methyl}-1,2-dihydroisoquinolin-5-yl)oxy]propanoate], the EC50 falls from 1060 nM to 360 nM (2.9-fold). The second is the more potent here.

First: CCCCNC(=O)Cn1ccc2c(OC(C)C(=O)OCC)cccc2c1=O (stereo unspecified) [ethyl 2-({2-[(butylcarbamoyl)methyl]-1-oxo-1,2-dihydroisoquinolin-5-yl}oxy)propanoate]
Second: CCCCc1ccc(NC(=O)Cn2ccc3c(OC(C)C(=O)OCC)cccc3c2=O)cc1 (stereo unspecified) [ethyl 2-[(2-{[(4-butylphenyl)carbamoyl]methyl}-1-oxo-1,2-dihydroisoquinolin-5-yl)oxy]propanoate]
The EC50 of the first is 27-fold higher: 9710 nM for the first, 360 nM for the second. The second is the more potent here.

First: CCOC(=O)C(C)Oc1cccc2c(=O)n(CC(=O)NC3CCCCC3)ccc12 (stereo unspecified) [ethyl 2-({2-[(cyclohexylcarbamoyl)methyl]-1-oxo-1,2-dihydroisoquinolin-5-yl}oxy)propanoate]
Second: CCOC(=O)C(C)Oc1cccc2c(=O)n(CC(=O)NCc3ccco3)ccc12 (stereo unspecified) [ethyl 2-[(2-{[(furan-2-ylmethyl)carbamoyl]methyl}-1-oxo-1,2-dihydroisoquinolin-5-yl)oxy]propanoate]
The EC50 of the first is 2.7-fold lower: 1770 nM for the first, 4710 nM for the second.

Compared with `CCOC(=O)C(C)Oc1cccc2c(=O)n(CC(=O)N(C)c3ccc4c(c3)OCCO4)ccc12` (stereo unspecified) [ethyl 2-[(2-{[2,3-dihydro-1,4-benzodioxin-6-yl(methyl)carbamoyl]methyl}-1-oxo-1,2-dihydroisoquinolin-5-yl)oxy]propanoate], `CCOC(=O)C(C)Oc1cccc2c(=O)n(CC(=O)NCc3ccc4c(c3)OCO4)ccc12` (stereo unspecified) [ethyl 2-[(2-{[(2H-1,3-benzodioxol-5-ylmethyl)carbamoyl]methyl}-1-oxo-1,2-dihydroisoquinolin-5-yl)oxy]propanoate] is 14-fold lower in EC50: 3570 nM for the first, 260 nM for the second. The second is the more potent here.

`CCOC(=O)C(C)Oc1cccc2c(=O)n(CC(=O)Nc3ccc(OCC)cc3)ccc12` (stereo unspecified) [ethyl 2-[(2-{[(4-ethoxyphenyl)carbamoyl]methyl}-1-oxo-1,2-dihydroisoquinolin-5-yl)oxy]propanoate] and `CCOC(=O)C(C)Oc1cccc2c(=O)n(CC(=O)Nc3ccc(OC)cc3)ccc12` (stereo unspecified) [ethyl 2-[(2-{[(4-methoxyphenyl)carbamoyl]methyl}-1-oxo-1,2-dihydroisoquinolin-5-yl)oxy]propanoate] are within 1.5-fold of each other in EC50: 190 nM for the first, 200 nM for the second.

First: CCOC(=O)C(C)Oc1cccc2c(=O)n(CC(=O)Nc3ccc(CC)cc3)ccc12 (stereo unspecified) [ethyl 2-[(2-{[(4-ethylphenyl)carbamoyl]methyl}-1-oxo-1,2-dihydroisoquinolin-5-yl)oxy]propanoate]
Second: CCOC(=O)C(C)Oc1cccc2c(=O)n(CC(=O)Nc3ccc(C)cc3)ccc12 (stereo unspecified) [ethyl 2-[(2-{[(4-methylphenyl)carbamoyl]methyl}-1-oxo-1,2-dihydroisoquinolin-5-yl)oxy]propanoate]
The EC50 of the first is 3.1-fold lower: 110 nM for the first, 340 nM for the second.

First: CCOC(=O)C(C)Oc1cccc2c(=O)n(CC(=O)Nc3ccc([N+](=O)[O-])cc3)ccc12 (stereo unspecified) [ethyl 2-[(2-{[(4-nitrophenyl)carbamoyl]methyl}-1-oxo-1,2-dihydroisoquinolin-5-yl)oxy]propanoate]
Second: CCOC(=O)C(C)Oc1cccc2c(=O)n(CC(=O)Nc3ccc(OC(F)(F)F)cc3)ccc12 (stereo unspecified) [ethyl 2-{[1-oxo-2-({[4-(trifluoromethoxy)phenyl]carbamoyl}methyl)-1,2-dihydroisoquinolin-5-yl]oxy}propanoate]
The EC50 of the first is 2.6-fold higher: 530 nM for the first, 200 nM for the second. The second is the more potent here.

Work on `CCOC(=O)C(C)Oc1cccc2c(=O)n(CC(=O)NCc3ccc(F)cc3)ccc12` (stereo unspecified) [ethyl 2-{[2-({[(4-fluorophenyl)methyl]carbamoyl}methyl)-1-oxo-1,2-dihydroisoquinolin-5-yl]oxy}propanoate] yielded an EC50 of 680 nM.
